Laboratory results from patent US20190166840A1, “SUBSTITUTED PYRAZOLINYL DERIVATIVES, PROCESSES FOR THEIR PREPARATION AND THEIR USE AS HERBICIDES AND/OR PLANT GROWTH REGULATORS” (BAYER CROPSCIENCE AKTIENGESELLSCHAFT, priority 2016, published 2019).

Columns and labels:
Type in all cases: in vivo
Details in all cases: application rate 1280 g/ha, scored visually after about 3 weeks
[1] = system: Amaranthus retroflexus; experiment: Pre-emergence herbicidal action, AMARE
Description: (§1) Pre-Emergence Herbicidal Action Seeds of mono- and dicotyledonous weed plants or crop plants were placed in sandy loam in wood fibre pots and covered with soil. The formulated compounds of the general formula (I) according to the invention were then applied to the surface of the covering soil in the form of an aqueous suspension or emulsion at an application rate of 600 l of water/ha (converted) with addition of 0.2% wetting agent. After the treatment, the pots were placed in a greenhouse and kept under good growth conditions for the test plants. After about 3 weeks, the effect was scored visually in percent in comparison to untreated controls. For example, 100% activity=the plants have died, 50% herbicidal activity or damage=plants reduced to 50% or plant material reduced by 50%, 0% activity=like control plants. Here, in the biological tests, the compounds of the general formula (I) according to the invention were in each case employed in a formulation, with the numerations of Tables I.1 to I.77 also applying here. Here, the herbicidal action of the compounds of the general formula (I) according to the invention was examined for the following harmful plants: AMARE=Amaranthus retroflexus The respective herbicidal action was in each case determined at the same point in time after application of the formulation in question, i.e. damage of the harmful plant in question in %. Pre-emergence herbicidal action of the compounds of the general formula (I) according to the invention: […]

[2] = system: Hordeum murinum; experiment: Pre-emergence herbicidal action, HORMU
Description: as §1, with “HORMU=Hordeum murinum” for “AMARE=Amaranthus retroflexus”

[3] = system: Setaria viridis; experiment: Pre-emergence herbicidal action, SETVI
Description: as §1, with “SETVI=Setaria viridis” for “AMARE=Amaranthus retroflexus”

[4] = system: Alopecurus myosuroides; experiment: Pre-emergence herbicidal action, ALOMY
Description: as §1, with “ALOMY=Alopecurus myosuroides” for “AMARE=Amaranthus retroflexus”

[5] = system: Matricaria inodora (=Tripleurospermum maritimum subsp. inodorum); experiment: Pre-emergence herbicidal action, MATIN
Description: as §1, with “MATIN=Matricaria inodora (=Tripleurospermum maritimum subsp. inodorum)” for “AMARE=Amaranthus retroflexus”

SMILES | Pre-emergence herbicidal action AMARE, damage of the harmful plant [1] [%] | Pre-emergence herbicidal action HORMU, damage of the harmful plant [2] [%] | Pre-emergence herbicidal action SETVI, damage of the harmful plant [3] [%] | Pre-emergence herbicidal action ALOMY, damage of the harmful plant [4] [%] | Pre-emergence herbicidal action MATIN, damage of the harmful plant [5] [%]
CC1=C(C)C(O)N(C2=NN(c3ccccn3)C(C)(C)C2)C1=O (stereo not drawn) [I.2-132] | 60 | 0 | 40 | 70 | 0
CC1=C(C)C(O)N(C2=NN(c3ccccc3)C(C(F)(F)F)C2)C1=O (stereo not drawn) [I.2-1413] | 60 | 60 | 70 | 70 | 100
CCC(=O)OC1C(C)=C(C)C(=O)N1C1=NN(c2ccccn2)C(C)(C)C1 (stereo not drawn) [I.23-132] | 70 | 20 | 0 | 60 | 40
CCC(=O)OC1C(C)=C(C)C(=O)N1C1=NN(c2ccccc2)CC1 (stereo not drawn) [I.23-621] | 40 | 0 | 50 | 0 | 50
CCC(=O)OC1C(C)=C(C)C(=O)N1C1=NN(c2ccccc2)C(C(F)(F)F)C1 (stereo not drawn) [I.23-1413] | 50 | 30 | 40 | 0 | 70
CCC(=O)OC1C(C)=C(Cl)C(=O)N1C1=NN(C)C(c2ccccc2)C1 (stereo not drawn) [I.24-1126] | 0 | 20 | 0 | 10 | 90
